Patent US20250100998A1, “PARP7 INHIBITORS” (Gilead Sciences, Inc., priority 2023, published 2025)

Test system: STAT1 (phosphorylated at Tyr701) in NCI-H1373 cells
Assay: Phospho-STAT1 (Tyr701) LANCE Ultra TR-FRET detection assay
Assay type: cell-based
Conditions: Homo sapiens, NCI-H1373, 48 h, induction of pSTAT1 in NCI-H1373 cells, 48 hours incubation; normalized to 10 uM positive control and DMSO; 4-parameter fit; read-out: NH1373 pSTAT1 EC50
Procedure: Phospho-STAT1 (Tyr701 LANCE Ultra TR-FRET Detection Assay
LANCE Ultra phospho-STAT1 (Tyr701) kits are designed for the detection of phosphorylated STAT1 in cell lysates using a simple, homogeneous LANCE Ultra sandwich assay (Cat. #TRF4028M). This assay is intended for assessing compound induction of endogenous levels of cellular STAT1 (phosphorylated at Tyr701) in NCI-H1373 cells. The NCI-H1373 cells are cultured in RPMI 1640 media containing 10% heat inactivated FBS, GlutaMAX, 1% Penicillin-Streptomycin. An Echo acoustic liquid handler is used to transfer 60 nanoliters of compound dilutions using the Echo Qualified, 384-well polypropylene microplate clear flat bottom source plates into a Greiner (#781080) cell culture microplate. NCI-H1373 cells are seeded into these compound-spotted culture plates at 30,000 cells/well in a 60 uL volume in growth media. The plates are incubated in a 5% CO2 humidified incubator at 37° C. for 48 hours. […] Briefly, […] of supplemented lysis buffer is added to each well and allowed to shake for 1 hour at 400 rpm. Next, 5 ul of remixed antibody solutions (vol/vol) prepared in detection buffer are added to each well and allowed to incubate at room temperature overnight. After spinning the plate down at 300 rpm for 1 min, the plate is read on an EnVision plate reader set up for Eu3+ Cryptate and fluorescence emission is measured at two different wavelengths (665 nm and 620 nm). The HTRF ratio is then calculated ([…]) for each well to determine the amount of pSTAT1 in the cell lysate, and the data is then normalized to 10 uM (S)-5-((1-(3-oxo-3-(4-(5-(trifluoromethyl)pyrimidin-2-yl)piperazin-1-yl)propoxy)propan-2-yl)amino)-4-(trifluoromethyl)pyridazin-3(2H)-one positive and DMSO negative controls. The values were then plotted as a function of compound concentration and a 4-parameter fit was applied to derive the EC50 values.

Row | Compound | EC50
1 | CC(F)(F)c1cnc(-c2cc3c(F)cn(C[C@@H]4CCC[C@H](Nc5cn[nH]c(=O)c5C(F)(F)F)C4)c(=O)c3cc2F)nc1 [Example 42] | 2.45 nM
2 | CC(F)(F)c1cnc(-c2cc3ccn(C[C@@H]4CCC[C@H](Nc5cn[nH]c(=O)c5C(F)(F)F)C4)c(=O)c3cc2F)nc1 [Example 4, 6-(5-(1,1-difluoroethyl)pyrimidin-2-yl)-7-fluoro-2-(((1R,3S)-3-((6-oxo-5-(trifluoromethyl)-1,6-dihydropyridazin-4-yl)amino)cyclohexyl)methyl)isoquinolin-1(2H)-one] | 2.26 nM
3 | CS(=O)(=O)c1cnc(-c2cc3ccn(C[C@@H]4CCC[C@H](Nc5cn[nH]c(=O)c5C(F)(F)F)C4)c(=O)c3cc2F)nc1 [Example 13, 7-fluoro-6-(5-(methylsulfonyl)pyrimidin-2-yl)-2-(((1R,3S)-3-((6-oxo-5-(trifluoromethyl)-1,6-dihydropyridazin-4-yl)amino)cyclohexyl)methyl)isoquinolin-1(2H)-one] | 6.21 nM
4 | O=C1c2cc(F)c(-c3ncc(C(F)F)cn3)cc2CCN1C[C@@H]1CCC[C@H](Nc2cn[nH]c(=O)c2C(F)(F)F)C1 [Example 72, 6-(5-(difluoromethyl)pyrimidin-2-yl)-7-fluoro-2-(((1R,3S)-3-((6-oxo-5-(trifluoromethyl)-1,6-dihydropyridazin-4-yl)amino)cyclohexyl)methyl)-3,4-dihydroisoquinolin-1(2H)-one] | 3.74 nM
5 | O=c1[nH]ncc(N[C@H]2CCC[C@@H](Cn3cc(F)c4cc(-c5nc6ccccn6n5)c(F)cc4c3=O)C2)c1C(F)(F)F [Example 32, 6-([1,2,4]triazolo[1,5-a]pyridin-2-yl)-4,7-difluoro-2-(((1R,3S)-3-((6-oxo-5-(trifluoromethyl)-1,6-dihydropyridazin-4-yl)amino)cyclohexyl)methyl)isoquinolin-1(2H)-one] | 1.53 nM
6 | Cc1nc(-c2cc3ccn(C[C@@H]4CCC[C@H](Nc5cn[nH]c(=O)c5C(F)(F)F)C4)c(=O)c3cc2F)ncc1Cl [Example 7, 6-(5-chloro-4-methylpyrimidin-2-yl)-7-fluoro-2-(((1R,3S)-3-((6-oxo-5-(trifluoromethyl)-1,6-dihydropyridazin-4-yl)amino)cyclohexyl)methyl)isoquinolin-1(2H)-one] | 6.03 nM
7 | O=c1[nH]ncc(N[C@H]2CCC[C@@H](Cn3cc(Cl)c4cc(-c5ncc(C(F)F)cn5)c(F)c(F)c4c3=O)C2)c1C(F)(F)F [Example 61] | 1.33 nM
8 | [2H]C([2H])([2H])Oc1cnc(-c2cc3ncn(C[C@@H]4CCC[C@H](Nc5cn[nH]c(=O)c5C(F)(F)F)C4)c(=O)c3cc2F)nc1 [Example 26, 6-fluoro-7-(5-(methoxy-d3)pyrimidin-2-yl)-3-(((1R,3S)-3-((6-oxo-5-(trifluoromethyl)-1,6-dihydropyridazin-4-yl)amino)cyclohexyl)methyl)quinazolin-4(3H)-one] | 5.63 nM
9 | O=c1[nH]ncc(N[C@H]2CCC[C@@H](Cn3cc(F)c4cc(-c5ncc(OCCO)cn5)c(F)c(F)c4c3=O)C2)c1C(F)(F)F [Example 36, 4,7,8-trifluoro-6-(5-(2-hydroxyethoxy)pyrimidin-2-yl)-2-(((1R,3S)-3-((6-oxo-5-(trifluoromethyl)-1,6-dihydropyridazin-4-yl)amino)cyclohexyl)methyl)isoquinolin-1(2H)-one] | 4.21 nM
10 | CS(=O)(=O)c1ccc(-c2cc3ccn(C[C@@H]4CCC[C@H](Nc5cn[nH]c(=O)c5C(F)(F)F)C4)c(=O)c3cc2F)nc1 [Example 11, 7-fluoro-6-(5-(methylsulfonyl)pyridin-2-yl)-2-(((1R,3S)-3-((6-oxo-5-(trifluoromethyl)-1,6-dihydropyridazin-4-yl)amino)cyclohexyl)methyl)isoquinolin-1(2H)-one] | 13.6 nM
11 | O=C1c2cc(F)c(-c3ncc(C(F)(F)F)cn3)cc2CN1C[C@@H]1CCC[C@H](Nc2cn[nH]c(=O)c2C(F)(F)F)C1 [Example 74, 6-fluoro-2-(((1R,3S)-3-((6-oxo-5-(trifluoromethyl)-1,6-dihydropyridazin-4-yl)amino)cyclohexyl)methyl)-5-(5-(trifluoromethyl)pyrimidin-2-yl)isoindolin-1-one] | 9.03 nM
12 | O=c1[nH]ncc(N[C@H]2CCO[C@@H](Cn3ccc4cc(-c5nc6ccccn6n5)c(F)cc4c3=O)C2)c1C(F)(F)F [Example 64, 7-fluoro-2-[[(2R,4S)-4-[[6-oxo-5-(trifluoromethyl)-1H-pyridazin-4-yl]amino]tetrahydropyran-2-yl]methyl]-6-([1,2,4]triazolo[1,5-a]pyridin-2-yl)isoquinolin-1-one] | 36.1 nM
13 | CC(C)(O)c1cnc(-c2cc3c(cc2F)C(=O)N(C[C@@H]2CCC[C@H](Nc4cn[nH]c(=O)c4C(F)(F)F)C2)CC3)nc1 [Example 73, 7-fluoro-6-(5-(2-hydroxypropan-2-yl)pyrimidin-2-yl)-2-(((1R,3S)-3-((6-oxo-5-(trifluoromethyl)-1,6-dihydropyridazin-4-yl)amino)cyclohexyl)methyl)-3,4-dihydroisoquinolin-1(2H)-one] | 7.8 nM
14 | CC(C)(O)c1cnc(-c2cc3ccn(C[C@@H]4CCC[C@H](Oc5cn[nH]c(=O)c5C(F)(F)F)C4)c(=O)c3c(F)c2F)nc1 [Example 55, 7,8-difluoro-6-(5-(2-hydroxypropan-2-yl)pyrimidin-2-yl)-2-(((1R,3S)-3-((6-oxo-5-(trifluoromethyl)-1,6-dihydropyridazin-4-yl)oxy)cyclohexyl)methyl)isoquinolin-1(2H)-one] | 1.56 nM
15 | O=c1[nH]ncc(N[C@H]2CCC[C@@](O)(Cn3ccc4cc(-c5ncc(C(F)(F)F)cn5)c(F)cc4c3=O)C2)c1C(F)(F)F [Example 63, 7-fluoro-2-[[(1S,3S)-1-hydroxy-3-[[6-oxo-5-(trifluoromethyl)-1H-pyridazin-4-yl]amino]cyclohexyl]methyl]-6-[5-(trifluoromethyl)pyrimidin-2-yl]isoquinolin-1-one] | 1.87 nM
16 | CS(=O)(=O)c1cnc(-c2cc3c(F)cn(C[C@@H]4CCC[C@H](Nc5cn[nH]c(=O)c5C(F)(F)F)C4)c(=O)c3cc2F)nc1 [Example 40, 4,7-difluoro-6-(5-methylsulfonylpyrimidin-2-yl)-2-[[(1R,3S)-3-[[6-oxo-5-(trifluoromethyl)-1H-pyridazin-4-yl]amino]cyclohexyl]methyl]isoquinolin-1-one] | 16.3 nM
17 | CC(C)(O)c1cnc(-c2cc3ccn(C[C@@H]4CCC[C@H](Nc5cn[nH]c(=O)c5C(F)(F)F)C4)c(=O)c3c(F)c2F)nc1 [Example 18, 7,8-difluoro-6-(5-(2-hydroxypropan-2-yl)pyrimidin-2-yl)-2-(((1R,3S)-3-((6-oxo-5-(trifluoromethyl)-1,6-dihydropyridazin-4-yl)amino)cyclohexyl)methyl)isoquinolin-1(2H)-one] | 3.23 nM
18 | O=c1[nH]ncc(N[C@H]2CCC[C@@H](Cn3cc(F)c4cc(-c5ncc(OC(F)(F)F)cn5)c(F)cc4c3=O)C2)c1C(F)(F)F [Example 23, 4,7-difluoro-2-(((1R,3S)-3-((6-oxo-5-(trifluoromethyl)-1,6-dihydropyridazin-4-yl)amino)cyclohexyl)methyl)-6-(5-(trifluoromethoxy)pyrimidin-2-yl)isoquinolin-1(2H)-one] | 9.13 nM
